Reference: ChEMBL document CHEMBL1201861, “Genomics of Drug Sensitity in Cancer screening data, Wellcome Trust Sanger Institute”

How the values were obtained:
Test in all cases: cells
Format in all cases: functional, cell-based, Homo sapiens
KLE = conditions: Homo sapiens, KLE;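 note: growth inhibition of human KLE cells, read out with a cell viability assay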
Description: SANGER: Inhibition of human KLE cell growth in a cell viability assay.

LB831-BLC = conditions: Homo sapiens, LB831-BLC;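 note: growth inhibition of LB831-BLC cells, read out with a cell viability assay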
Description: SANGER: Inhibition of human LB831-BLC cell growth in a cell viability assay.

LB2241-RCC = conditions: Homo sapiens, LB2241-RCC;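 note: cell viability assay measuring how strongly the cultured human renal carcinoma line is prevented from growing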
Description: SANGER: Inhibition of human LB2241-RCC cell growth in a cell viability assay.

CCRF-CEM = conditions: Homo sapiens, CCRF-CEM;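 note: inhibition of CCRF-CEM cell growth, measured by a cell viability assay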
Description: SANGER: Inhibition of human CCRF-CEM cell growth in a cell viability assay.

CGTH-W-1 = conditions: Homo sapiens, CGTH-W-1;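 note: growth inhibition of human CGTH-W-1 cells measured by cell viability assay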
Description: SANGER: Inhibition of human CGTH-W-1 cell growth in a cell viability assay.

LB373-MEL-D = conditions: Homo sapiens, LB373-MEL-D;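 note: growth inhibition of the cell line, read out in a cell viability assay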
Description: SANGER: Inhibition of human LB373-MEL-D cell growth in a cell viability assay.

NCI-H526 = conditions: Homo sapiens, NCI-H526;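 note: growth inhibition of the human NCI-H526 cell line, measured by a cell viability assay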
Description: SANGER: Inhibition of human NCI-H526 cell growth in a cell viability assay.

KY821 = conditions: Homo sapiens, KY821;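 note: growth inhibition of human KY821 cells, read out by a cell viability assay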
Description: SANGER: Inhibition of human KY821 cell growth in a cell viability assay.

EOL1 = conditions: Homo sapiens, EOL1;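 note: growth inhibition of EoL-1 cells, read out by a cell viability assay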
Description: SANGER: Inhibition of human EoL-1-cell cell growth in a cell viability assay.

KP-N-YS = conditions: Homo sapiens, KP-N-YS;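 note: cell viability assay measuring inhibition of cell line growth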
Description: SANGER: Inhibition of human KP-N-YS cell growth in a cell viability assay.

NMC-G1 = conditions: Homo sapiens, NMC-G1;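 note: growth inhibition of the NMC-G1 cell line, measured with a cell viability read-out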
Description: SANGER: Inhibition of human NMC-G1 cell growth in a cell viability assay.

TGBC24TKB = conditions: Homo sapiens, TGBC24TKB;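 note: growth inhibition of human TGBC24TKB cells, read out with a cell viability assay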
Description: SANGER: Inhibition of human TGBC24TKB cell growth in a cell viability assay.

VA-ES-BJ = conditions: Homo sapiens, VA-ES-BJ;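 note: growth inhibition of the VA-ES-BJ cell line, read out by a cell viability assay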
Description: SANGER: Inhibition of human VA-ES-BJ cell growth in a cell viability assay.

MHH-NB-11 = conditions: Homo sapiens, MHH-NB-11;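 note: growth inhibition of human MHH-NB-11 cells, read out by a cell viability assay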
Description: SANGER: Inhibition of human MHH-NB-11 cell growth in a cell viability assay.

SK-PN-DW = conditions: Homo sapiens, SK-PN-DW;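 note: growth inhibition measured with a viability assay on these cells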
Description: SANGER: Inhibition of human SK-PN-DW cell growth in a cell viability assay.

GI-ME-N = conditions: Homo sapiens, GI-ME-N;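 note: growth inhibition of human GI-ME-N cells, read out with a cell viability assay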
Description: SANGER: Inhibition of human GI-ME-N cell growth in a cell viability assay.

BE-13 = conditions: Homo sapiens, BE-13;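 note: growth inhibition of human BE-13 cells, measured with a cell viability assay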
Description: SANGER: Inhibition of human BE-13 cell growth in a cell viability assay.

HH = conditions: Homo sapiens, HH
Description: SANGER: Inhibition of human HH cell growth in a cell viability assay.

NKM-1 = conditions: Homo sapiens, NKM-1;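 note: growth inhibition of NKM-1 cells, read out with a cell viability assay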
Description: SANGER: Inhibition of human NKM-1 cell growth in a cell viability assay.

LB1047-RCC = conditions: Homo sapiens, LB1047-RCC;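 note: inhibition of cell growth, determined with a cell viability assay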
Description: SANGER: Inhibition of human LB1047-RCC cell growth in a cell viability assay.

ONS-76 = conditions: Homo sapiens, ONS-76;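 note: growth inhibition of human ONS-76 cells, read out with a cell viability assay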
Description: SANGER: Inhibition of human ONS-76 cell growth in a cell viability assay.

KU812 cell line = conditions: Homo sapiens, KU812;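 note: growth inhibition of KU812 cells, read out with a cell viability assay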
Description: SANGER: Inhibition of human KU812 cell growth in a cell viability assay.

SW 962 = conditions: Homo sapiens, SW 962;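 note: growth inhibition of human SW962 cells, read out by a cell viability assay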
Description: SANGER: Inhibition of human SW962 cell growth in a cell viability assay.

COR-L88 = conditions: Homo sapiens, COR-L88;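 note: growth inhibition of COR-L88 cells, read out with a cell viability assay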
Description: SANGER: Inhibition of human COR-L88 cell growth in a cell viability assay.

NB17 = conditions: Homo sapiens, NB17;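 note: growth inhibition of NB17 cells, read out with a cell viability assay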
Description: SANGER: Inhibition of human NB17 cell growth in a cell viability assay.

SK-UT-1 = conditions: Homo sapiens, SK-UT-1;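 note: growth inhibition of SK-UT-1 cells, measured by a cell viability assay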
Description: SANGER: Inhibition of human SK-UT-1 cell growth in a cell viability assay.

K562 = conditions: Homo sapiens, K562
Description: SANGER: Inhibition of human K-562 cell growth in a cell viability assay.

ES8 = conditions: Homo sapiens, ES8;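 note: growth inhibition of human ES8 cells, read out with a cell viability assay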
Description: SANGER: Inhibition of human ES8 cell growth in a cell viability assay.

KALS-1 = conditions: Homo sapiens, KALS-1;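 note: growth inhibition of KALS-1 cells, determined with a cell viability assay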
Description: SANGER: Inhibition of human KALS-1 cell growth in a cell viability assay.

KGN = conditions: Homo sapiens, KGN;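 note: growth inhibition of KGN cells, read out with a cell viability assay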
Description: SANGER: Inhibition of human KGN cell growth in a cell viability assay.

D-392MG = conditions: Homo sapiens, D-392MG
ML-2 = conditions: Homo sapiens, ML-2;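 note: growth inhibition of ML-2 cells, measured with a cell viability readout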
Description: SANGER: Inhibition of human ML-2 cell growth in a cell viability assay.

Becker = conditions: Homo sapiens, Becker;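 note: growth inhibition of Becker cells, read out with a cell viability assay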
Description: SANGER: Inhibition of human Becker cell growth in a cell viability assay.

NCI-H1581 = conditions: Homo sapiens, NCI-H1581;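 note: cell growth inhibition read out by a viability assay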
Description: SANGER: Inhibition of human NCI-H1581 cell growth in a cell viability assay.

ALL-PO = conditions: Homo sapiens, ALL-PO;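 note: growth inhibition of ALL-PO cells, read out by a cell viability assay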
Description: SANGER: Inhibition of human ALL-PO cell growth in a cell viability assay.

NCI-H1838 = conditions: Homo sapiens, NCI-H1838;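 note: growth inhibition of NCI-H1838 cells, determined with a cell viability readout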
Description: SANGER: Inhibition of human NCI-H1838 cell growth in a cell viability assay.

A101D = conditions: Homo sapiens, A101D;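 note: growth inhibition of the cell line, measured with a viability assay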
Description: SANGER: Inhibition of human A101D cell growth in a cell viability assay.

TE-5 = conditions: Homo sapiens, TE-5;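 note: inhibition of cell growth, read out by a cell viability assay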
Description: SANGER: Inhibition of human TE-5 cell growth in a cell viability assay.

MPP-89 = conditions: Homo sapiens, MPP-89;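 note: growth inhibition of human MPP-89 cells, read out with a cell viability assay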
Description: SANGER: Inhibition of human MPP-89 cell growth in a cell viability assay.

KM12 = conditions: Homo sapiens, KM12;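 note: KM12 cell growth inhibition, read out with a cell viability assay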
Description: SANGER: Inhibition of human KM12 cell growth in a cell viability assay.

GB-1 = conditions: Homo sapiens, GB-1;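 note: growth of GB-1 cells judged by a viability assay, IC50 marks the concentration inhibiting growth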
Description: SANGER: Inhibition of human GB-1 cell growth in a cell viability assay.

EW-18 = conditions: Homo sapiens, EW-18;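 note: growth inhibition of EW-18 cells, read out by a cell viability assay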
Description: SANGER: Inhibition of human EW-18 cell growth in a cell viability assay.

MMAC-SF = conditions: Homo sapiens, MMAC-SF;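 note: growth inhibition of human MMAC-SF cells, read out with a cell viability assay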
Description: SANGER: Inhibition of human MMAC-SF cell growth in a cell viability assay.

IST-SL1 = conditions: Homo sapiens, IST-SL1;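 note: growth inhibition of human IST-SL1 cells, read out with a cell viability assay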
Description: SANGER: Inhibition of human IST-SL1 cell growth in a cell viability assay.

HOP-62 = conditions: Homo sapiens, HOP-62;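 note: cell growth inhibition determined with a viability assay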
Description: SANGER: Inhibition of human HOP-62 cell growth in a cell viability assay.

A3-KAW = conditions: Homo sapiens, A3-KAW;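 note: growth inhibition of human A3-KAW cells, read out with a cell viability assay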
Description: SANGER: Inhibition of human A3-KAW cell growth in a cell viability assay.

NCI-H1299 = conditions: Homo sapiens, NCI-H1299;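 note: growth inhibition of human NCI-H1299 cells, read out by a cell viability assay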
Description: SANGER: Inhibition of human NCI-H1299 cell growth in a cell viability assay.

GR-ST = conditions: Homo sapiens, GR-ST
Description: SANGER: Inhibition of human GR-ST cell growth in a cell viability assay.

CC(C)CCN1c2nc(Nc3cc(F)c(O)c(F)c3)ncc2N(C)C(=O)C1C (centres undefined)
IC50 (KLE): > 5000 nM | IC50 (LB831-BLC): 3540 nM | IC50 (LB2241-RCC): 3690 nM | IC50 (CCRF-CEM): > 5000 nM | IC50 (CGTH-W-1): 3940 nM | IC50 (LB373-MEL-D): > 5000 nM | IC50 (NCI-H526): > 5000 nM | IC50 (KY821): 888 nM | IC50 (EOL1): 1020 nM | IC50 (KP-N-YS): 682 nM | IC50 (NMC-G1): > 5000 nM | IC50 (TGBC24TKB): > 5000 nM | IC50 (VA-ES-BJ): > 5000 nM | IC50 (MHH-NB-11): > 5000 nM | IC50 (SK-PN-DW): > 5000 nM | IC50 (GI-ME-N): > 5000 nM | IC50 (BE-13): 1590 nM | IC50 (HH): 2800 nM | IC50 (NKM-1): > 5000 nM | IC50 (LB1047-RCC): 4100 nM | IC50 (ONS-76): > 5000 nM | IC50 (KU812 cell line): 626 nM | IC50 (SW 962): > 5000 nM | IC50 (COR-L88): > 5000 nM | IC50 (NB17): > 5000 nM | IC50 (SK-UT-1): > 5000 nM | IC50 (K562): > 5000 nM | IC50 (ES8): 1880 nM | IC50 (KALS-1): > 5000 nM | IC50 (KGN): > 5000 nM | IC50 (D-392MG): > 5000 nM | IC50 (ML-2): 856 nM | IC50 (Becker): 2660 nM | IC50 (NCI-H1581): > 5000 nM | IC50 (ALL-PO): > 5000 nM | IC50 (NCI-H1838): > 5000 nM | IC50 (A101D): 4970 nM | IC50 (TE-5): > 5000 nM | IC50 (MPP-89): > 5000 nM | IC50 (KM12): 3120 nM | IC50 (GB-1): > 5000 nM | IC50 (EW-18): 622 nM | IC50 (MMAC-SF): > 5000 nM | IC50 (IST-SL1): 846 nM | IC50 (HOP-62): 4310 nM | IC50 (A3-KAW): 1630 nM | IC50 (NCI-H1299): 2940 nM | IC50 (GR-ST): > 5000 nM

CC1(C)CNc2cc(NC(=O)c3cccnc3NCc3ccncc3)ccc21 [MOTESANIB]
IC50 (KLE): > 2000 nM | IC50 (LB831-BLC): > 2000 nM | IC50 (LB2241-RCC): > 2000 nM | IC50 (CCRF-CEM): > 2000 nM | IC50 (CGTH-W-1): 670 nM | IC50 (NCI-H526): > 2000 nM | IC50 (KY821): > 2000 nM | IC50 (EOL1): < 7.81 nM | IC50 (KP-N-YS): > 2000 nM | IC50 (NMC-G1): > 2000 nM | IC50 (TGBC24TKB): > 2000 nM | IC50 (VA-ES-BJ): > 2000 nM | IC50 (MHH-NB-11): > 2000 nM | IC50 (SK-PN-DW): > 2000 nM | IC50 (GI-ME-N): > 2000 nM | IC50 (BE-13): > 2000 nM | IC50 (HH): > 2000 nM | IC50 (NKM-1): > 2000 nM | IC50 (LB1047-RCC): > 2000 nM | IC50 (ONS-76): > 2000 nM | IC50 (KU812 cell line): > 2000 nM | IC50 (SW 962): > 2000 nM | IC50 (COR-L88): > 2000 nM | IC50 (NB17): > 2000 nM | IC50 (SK-UT-1): > 2000 nM | IC50 (K562): > 2000 nM | IC50 (ES8): > 2000 nM | IC50 (KALS-1): > 2000 nM | IC50 (KGN): > 2000 nM | IC50 (D-392MG): > 2000 nM | IC50 (ML-2): > 2000 nM | IC50 (Becker): > 2000 nM | IC50 (NCI-H1581): > 2000 nM | IC50 (ALL-PO): > 2000 nM | IC50 (NCI-H1838): > 2000 nM | IC50 (A101D): > 2000 nM | IC50 (TE-5): > 2000 nM | IC50 (MPP-89): > 2000 nM | IC50 (KM12): > 2000 nM | IC50 (GB-1): > 2000 nM | IC50 (EW-18): > 2000 nM | IC50 (MMAC-SF): > 2000 nM | IC50 (IST-SL1): > 2000 nM | IC50 (A3-KAW): > 2000 nM | IC50 (NCI-H1299): > 2000 nM | IC50 (GR-ST): > 2000 nM
